# Values quoted from earlier work as cited in patent US20260069593A1, “METHODS FOR TREATING CANCER” (AMGEN INC., priority 2022, published 2026).
# Tested on: extracellular signal-regulated kinase (ERK)
# Settings: preclinical studies
structure (smiles),measurement,value
"C=CC(=O)N1CCN(c2nc(=O)n(-c3c(C)ccnc3C(C)C)c3nc(-c4c(O)cccc4F)c(F)cc23)[C@@H](C)C1 (atropisomer, axis not shown; (M)) [sotorasib, 6-fluoro-7-(2-fluoro-6-hydroxyphenyl)-(1M)-1-[4-methyl-2-(propan-2-yl)pyridin-3-yl]-4-[(2S)-2-methyl-4-(prop-2-enoyl)piperazin-1-yl]pyrido[2,3-d]pyrimidin-2(1H)-one]",phosphorylation of extracellular signal-regulated kinase (ERK),inhibited nearly all detectable phosphorylation of extracellular signal-regulated kinase (ERK)
